For six molecules, IC50 results are on record in US20060100224A1, “Piperidine ouracil used as a medicament for treating bacterial infections” (priority 2002, published 2006).

This test has as its target T1, Pol III from S. aureus (PolC) (Staphylococcus aureus, UniProt P0C1P9).
T1 construct: His tag (pET15b) (N); made in house; host or cells: E. coli BL21(DE3)
T1 sequence (P0C1P9 1-1435): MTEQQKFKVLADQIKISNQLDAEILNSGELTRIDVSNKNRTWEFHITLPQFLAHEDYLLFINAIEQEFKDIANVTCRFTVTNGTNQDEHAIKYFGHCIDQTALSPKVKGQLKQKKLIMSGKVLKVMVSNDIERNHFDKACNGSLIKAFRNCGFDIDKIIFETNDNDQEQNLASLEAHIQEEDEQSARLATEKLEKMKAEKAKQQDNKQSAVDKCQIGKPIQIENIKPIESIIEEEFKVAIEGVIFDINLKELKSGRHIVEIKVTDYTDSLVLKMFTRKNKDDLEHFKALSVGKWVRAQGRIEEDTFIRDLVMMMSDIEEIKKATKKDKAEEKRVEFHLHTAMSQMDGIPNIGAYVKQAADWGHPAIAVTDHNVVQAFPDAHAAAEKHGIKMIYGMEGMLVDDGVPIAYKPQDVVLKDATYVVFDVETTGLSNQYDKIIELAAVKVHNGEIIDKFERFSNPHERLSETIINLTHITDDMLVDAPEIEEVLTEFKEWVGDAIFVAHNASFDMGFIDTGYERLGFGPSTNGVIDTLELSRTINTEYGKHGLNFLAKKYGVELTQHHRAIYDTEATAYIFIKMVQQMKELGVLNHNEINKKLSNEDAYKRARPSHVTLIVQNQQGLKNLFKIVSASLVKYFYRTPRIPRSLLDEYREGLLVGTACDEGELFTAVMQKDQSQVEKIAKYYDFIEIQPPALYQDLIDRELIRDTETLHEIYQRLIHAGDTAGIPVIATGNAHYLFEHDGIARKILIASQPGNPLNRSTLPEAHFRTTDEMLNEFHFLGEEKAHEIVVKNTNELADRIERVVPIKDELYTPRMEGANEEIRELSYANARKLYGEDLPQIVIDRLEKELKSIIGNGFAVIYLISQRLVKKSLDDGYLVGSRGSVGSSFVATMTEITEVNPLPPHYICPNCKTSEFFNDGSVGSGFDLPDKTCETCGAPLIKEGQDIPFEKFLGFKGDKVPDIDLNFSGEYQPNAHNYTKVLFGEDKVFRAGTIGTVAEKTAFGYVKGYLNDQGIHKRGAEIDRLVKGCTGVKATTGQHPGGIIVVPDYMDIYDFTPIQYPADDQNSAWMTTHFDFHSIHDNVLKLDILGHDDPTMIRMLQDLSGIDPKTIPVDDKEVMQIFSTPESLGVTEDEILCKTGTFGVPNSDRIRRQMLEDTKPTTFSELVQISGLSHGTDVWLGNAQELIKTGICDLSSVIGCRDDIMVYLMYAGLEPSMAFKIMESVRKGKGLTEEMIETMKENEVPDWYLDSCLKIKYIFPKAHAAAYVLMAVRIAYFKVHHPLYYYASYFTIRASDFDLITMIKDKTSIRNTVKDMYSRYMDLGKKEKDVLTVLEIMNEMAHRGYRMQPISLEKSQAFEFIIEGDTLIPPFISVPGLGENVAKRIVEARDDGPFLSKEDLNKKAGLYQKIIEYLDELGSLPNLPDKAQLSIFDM
Briefly: Determination of the IC50 for Polymerase III (PolC, luciferase-coupled pyrophosphate detection). The settings on record: purified PolC ~2 nM, 30° C., 30 min, activated calf thymus DNA. Type of test: biochemical. An excerpt:
Cloning, Expression and Purification of Pol III from S. aureus
To clone polC with an N-terminal His tag, the structural gene polC is amplified from S. aureus genomic DNA with the aid of PCR. The primers SAPol 31 5′-[…]-3′ and SAPolrev 5′-[…]-3′ are used to introduce the NdeI and BamHI restriction cleavage sites respectively in front of and behind the amplified gene. After the PCR product which is 4300 bp in size has been digested with NdeI and BamHI, it is ligated into the vector pET15b (Novagen, USA), which has likewise been digested with NdeI and BamHI, and transformed into E. coli XL-1 Blue.
After transformation into E. coli BL21(DE3), the cells are cultivated for expression of PolC at 30° C. in LB medium with 100 μg/ml ampicillin until the OD595 nm is 0.5, cooled to 18° C. and, after addition of 1 mM IPTG, incubated for a further 20 hours. The cells are harvested by centrifugation, washed once in PBS with 1 mM PMSF and taken up in 50 mM NaH2PO4 pH 8.0, 10 mM imidazole, 2 mM β-mercaptoethanol, 1 mM PMSF, 20% glycerol. The cells are disrupted using a French press at 12,000 psi, the cell detritus is removed by centrifugation ([…]×g, 120 min, 4° C.) and the supernatant is stirred with an appropriate amount of Ni-NTA-agarose (from Quiagen, Germany) at 4° C. for 1 hour. After the gel matrix has been packed into a column it is washed with 50 mM NaH2PO4 pH 8.0, 2 mM β-mercaptoethanol, 20 mM imidazole, 10% glycerol, and the purified protein is then eluted with the same buffer containing 100 mM imidazole. The purified protein is mixed with 50% glycerol and stored at −20° C.
Determination of the IC50 for Polymerase III
The activity of PolC is measured in an enzymatically coupled reaction, with the pyrophosphate formed during the polymerization being converted with the aid of ATP sulfurylase into ATP, which is detected using firefly luciferase. The reaction mixture contains, in a final volume of 50 μl, 50 mM Tris/Cl pH 7.5; 5 mM DTT, 10 mM MgCl2, 30 mM NaCl, 0.1 mg/ml BSA, 10% glycerol, 20 μM each dATP, dTTP, dCTP, 2U/ml activated calf thymus DNA (from Worthington, USA), 20 μM APS and 0.06 mM luciferin. The reaction is started by adding purified PolC in a final concentration of ˜2 nM and is incubated at 30° C. for 30 min. The amount of pyrophosphate formed is then converted into ATP by adding ATP sulfurylase (Sigma, USA) in a final concentration of 5 nM and incubating at 30° C. for 15 min. After addition of 0.2 nM firefly luciferase, the luminescence is measured in a luminometer for 60 s. The IC50 is reported as the concentration of an inhibitor which leads to 50% inhibition of the enzymic activity of PolC.

In general, IC50 refers to the midpoint of a concentration-inhibition curve. A low value points to higher potency. Turning to `CCc1cc(Nc2cc(=O)n(CC3CCN(C(=O)c4ccno4)CC3)c(=O)[nH]2)ccc1C` [Example 9], the IC50 was 140 nM.

As for `O=C(c1csnn1)N1CCC(Cn2c(=O)cc(Nc3ccc4c(c3)CCC4)[nH]c2=O)CC1` [Example 13], inhibition was half-maximal at 90 nM (IC50).

`O=C(c1nc[nH]n1)N1CCCC(Cn2c(=O)cc(Nc3ccc4c(c3)CCC4)[nH]c2=O)C1` (stereo not drawn) [Example 17] came in with an IC50 of 340 nM.

Turning to `Cc1nnsc1-c1nc(C(=O)N2CCC(Cn3c(=O)cc(Nc4ccc5c(c4)CCC5)[nH]c3=O)CC2)cs1` [Example 21], the IC50 was determined as 110 nM.

Regarding `O=C(c1cccnc1)N1CCCC(Cn2c(=O)cc(Nc3ccc4c(c3)CCC4)[nH]c2=O)C1` (stereo not drawn) [Example 26], the half-maximal inhibitory concentration (IC50) stood at 220 nM.

`Cc1ccoc1C(=O)N1CCCC(Cn2c(=O)cc(Nc3ccc4c(c3)CCC4)[nH]c2=O)C1` (stereo not drawn) [Example 39] gave an IC50 of 330 nM.
